Values quoted from earlier work as cited in patent US11318093B2, “Dental topical anesthetic gel” (Pac-Dent, Inc., priority 2019, dated 2022).

Columns and labels:
[1] = tested on: MCP-2 chemokine and other proinflammatory cytokines; conditions: Petrosino et al. 2018; in vitro ACD model; inhibition of MCP-2 chemokine and proinflammatory cytokine production
[2] = in vivo
[3] = tested on: methicillin-resistant Staphylococcus aureus strains (MRSA); conditions: European research; strains resistant to several classes of drugs
[4] = Evans 1991

## CCCCCc1cc(O)c2c(c1)OC(C)(CCC=C(C)C)C=C2 (stereo not drawn) [CBC, cannabichromene]
[1]
  anti-inflammatory properties: some anti-inflammatory benefits
[2]
  pain and inflammation associated with collagen-induced osteoarthritis: block pain and inflammation

## C=C(C)[C@@H]1CCC(C)=C[C@H]1c1c(O)cc(CCCCC)cc1O [CBD, cannabidiol]
[1]
  anti-inflammatory properties: potent anti-inflammatory properties

## C=C(C)[C@@H]1CCC(C)=C[C@H]1c1c(O)cc(CCC)cc1O [CBDV, cannabidivarin]
[1]
  anti-inflammatory properties: some anti-inflammatory benefits

## CCCCCc1cc(O)c(C/C=C(\C)CCC=C(C)C)c(O)c1 [CBG, cannabigerol]
[3]
  antibacterial agent against MRSA: effective antibacterial agent
[1]
  anti-inflammatory properties: some anti-inflammatory benefits

## CCCCCc1cc(O)c2c(c1)OC(C)(C)[C@@H]1CCC(C)=C[C@@H]21 [THC, tetrahydrocannabinol]
[4]
  anti-inflammatory potency relative to aspirin: twenty times that of aspirin
  anti-inflammatory potency relative to hydrocortisone: twice that of hydrocortisone
Cyclooxygenase (COX)
  cyclooxygenase (COX) inhibition: without any cyclooxygenase (COX) inhibition
